Data on one molecule can be found in patent US12649734B2, “Bioavailable protein disulfide isomerase inhibitors” (THE CLEVELAND CLINIC FOUNDATION, priority 2020, dated 2026).

One series relates to 5TGM1-luc myeloma cells. In words: 5TGM1-luc/C57BL/KaLwRij syngeneic mouse model of myeloma. Format: in vivo. The procedure:
FIGS. 8A & 8B provide graphs showing the stability of CCF642-34 and restriction of multiple myeloma in a syngeneic mouse model by PDIA1-inhibitor CCF642-34. (A) The stability of CCF642-34 was measured against oxidative metabolism by human liver microsomes. CCF642-34 (20 μM) was incubated with 0.25 mg/mL of human liver microsomes for 5 h. The residual compound at indicated time points was measured by HPLC (Agilent 1260 Infinity II) interfaced with reverse phase C18 column using 280 nm and 245 nm detection wavelength. The standard curve of known concentrations of CCF642-34 was obtained from the area under the peak at two wavelengths, and the remaining CCF642-34 was estimated. Data are representative of two independent experiments. (B) 5TGM1-luc/C57BL/KaLwRij mouse models of myeloma (3 males, 3 females per treatment group) were engrafted with 2×10^6 5TGM1-luc cells via tail vein injection and treated 3 times a week for 8 weeks per oral gavage with 20 mg/kg of CCF642-34 dissolved in 10% 2-hydroxy-propyl-o-cyclodextrin. The survival of each group was monitored, and Kaplan-Meier survival analysis was performed. All control animals required euthanasia before 52 days (due to paraparesis, weight loss, poor general condition), while 3 out of 6 mice treated with CCF642-34 lived beyond 6 months with no sign of disease.
Mouse experiment: Animal care and procedures were conducted in accordance with institutional guidelines approved by the Institutional Animal Care and Use Committee (IACUC). […]
To evaluate whether CCF642-34 achieved anti-myeloma efficacy after oral administration in vivo we used the 5TGM1-luc/C57BL/KaLwRij syngeneic mouse model. […] Mouse weight was monitored along with systemic symptoms of distress or disease. […] The intensity of luminescence was not good enough for the detection of bioluminescence, which is a common issue in the imaging of B57 black 6 mice. Therefore, the inventors primarily monitored the survival, and the disease burden was determined in the bone marrow cells at the time of sacrifice of a moribund mice. […]

Series [1] can be described thus: Stability in acidic conditions (6 N HCl). Format: physicochemical. The conditions noted are these: 3 h. The protocol:
To evaluate pharmacological properties of CCF642-34, the stability in acidic conditions (6 N HCl) and upon exposure to human liver microsomes was tested. […] It was therefore concluded that CCF642-34 may be orally bioavailable and effective against MM in vivo.

Series [2] concerns BTZ-resistant MM1.S cells. In words: Cell viability assay, BTZ-resistant MM1.S. In kind it is cell-based, human. The procedure:
Cells and reagents: MM1.S-luc-BTZ (BTZ®)-resistant cell line was made in our laboratory. Starting with 1 nM concentration, MM1.S-luc cells were treated with BTZ and exposed continuously for 5 days and removed for 2 days before re-exposure to the drug until the growth of the cells mimicked the parental cell line. Incremental increase of the drug was applied until the concentration of 8 nM was reached. […] BTZ was procured from Millennium Pharmaceuticals Inc. All cell lines that are used in this study and their detailed information are shown in table 1 below.
Cell viability assay: Cell viability was measured in 96 well culture plates (2×10^4 cells/well) using CellTiter-Glo® Luminescent Cell Viability Assay (Promega, Madison, WI, USA) according to the manufacturer's protocol.

Where [3] appears, read: 20 mg/kg oral gavage 3 times a week for 8 weeks.

`NC(CC1CNc2ccccc21)C(=O)NCCCOc1ccc(N2C(=O)/C(=C/c3ccc([N+](=O)[O-])s3)SC2=S)cc1` (centres unmarked) [CCF642-34]: in the series on 5TGM1-luc myeloma cells (setting [3]), the “mice living beyond 6 months with no sign of disease” value is listed as 3 out of 6 and the “mice living beyond 180 days with no sign of disease” value is reported as 3 out of 6. In addition, the “adverse events as assessed by weight and animal behavior” value with 5TGM1-luc myeloma cells (oral treatment, 8 weeks) was “no obvious adverse events”. Further, the “compound recovered after exposure to acid” value in series [1] is reported as “greater than 80%”. The “sensitivity of BTZ-resistant MM1.S compared to parental BTZ-naive MM1.S” value in series [2] is ~2 fold.
